Laboratory results: patent publication US9000010B2, “Alkyl-heterocycle carbamate derivatives, their preparation and their therapeutic application” (Sanofi, priority 2010, dated 2015)
Counter-ions that a name gives are not always drawn.

Tests used:
[1] = molecular target: T1, FAAH (Fatty Acid Amide Hydrolase) (Mus musculus, UniProt O08914); test: Radioenzymatic test of FAAH inhibition: hydrolysis of anandamide [ethanolamine 1-3H] by mouse brain membrane homogenates; assay type: biochemical; conditions: mouse brain membrane homogenate; preincubation 20 min at 25° C.; anandamide 10 μM; read-out: CI50 (concentration which inhibits the control enzymatic activity of FAAH by 50%)
T1 construct: The membrane homogenates are prepared at the time of use by homogenization of the tissues; from tissue; host or cells: mouse brain (minus the cerebellum), membrane homogenate
T1 sequence (O08914 1-579): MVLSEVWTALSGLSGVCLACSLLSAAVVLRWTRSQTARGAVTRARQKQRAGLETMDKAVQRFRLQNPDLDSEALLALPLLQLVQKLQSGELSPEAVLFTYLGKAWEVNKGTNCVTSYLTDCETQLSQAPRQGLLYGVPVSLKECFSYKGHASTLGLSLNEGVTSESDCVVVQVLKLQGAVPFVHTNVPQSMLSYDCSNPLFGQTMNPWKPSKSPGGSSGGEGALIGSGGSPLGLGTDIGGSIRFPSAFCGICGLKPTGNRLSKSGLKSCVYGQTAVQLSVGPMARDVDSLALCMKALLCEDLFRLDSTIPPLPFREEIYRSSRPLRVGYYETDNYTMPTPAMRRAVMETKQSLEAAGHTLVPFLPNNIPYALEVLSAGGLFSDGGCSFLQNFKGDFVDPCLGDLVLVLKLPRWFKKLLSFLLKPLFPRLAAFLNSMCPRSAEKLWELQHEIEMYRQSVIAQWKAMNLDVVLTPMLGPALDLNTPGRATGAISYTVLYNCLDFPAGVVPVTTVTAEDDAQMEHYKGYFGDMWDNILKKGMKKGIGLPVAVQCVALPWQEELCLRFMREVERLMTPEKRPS
Procedure: The compounds of the invention form the subject of pharmacological trials which make it possible to determine their inhibitory effect on the enzyme FAAH (Fatty Acid Amide Hydrolase).
Thus, mouse brains (minus the cerebellum) are removed and stored at −80° C. The membrane homogenates are prepared at the time of use by homogenization of the tissues using a Precellys® device in the reaction buffer (Tris-HCl 10 mM pH=8, NaCl 150 mM and ethylenediaminetetraacetic acid (EDTA) 1 mM). The enzymatic reaction is carried out in 96-well MultiScreen filtration plates in a final volume of 70 μl. Reaction buffer supplemented with bovine serum albumin free from fatty acids (BSA, 1 mg/ml) is used for the enzymatic reaction, the dilution of the compounds and the dilution of the anandamide [ethanolamine 1-^3H]. Reaction buffer comprising the BSA (43 μl/well), the diluted test compounds at different concentrations (7 μl/well comprising 1% of DMSO) and the membrane preparation (10 μl/well, i.e. 200 μg of tissue per trial) are successively added to the wells. After preincubating the compounds with the enzyme at 25° C. for 20 minutes, the reaction is initiated by the addition of anandamide [ethanolamine 1-^3H] (specific activity of 15-20 Ci/mmol) diluted with cold anandamide (10 μl/well, final concentration of 10 μM, 0.01 μCi, per trial). After incubating at 25° C. for 20 minutes, the enzymatic reaction is halted by addition of a […] active charcoal solution prepared in a 1.5M NaCl and 0.5M HCl buffer (50 μl/well). The mixture is stirred for 10 minutes and then the aqueous phase comprising the [1-^3H]ethanolamine is recovered by filtration under vacuum and counted by liquid scintillation.

With `O=C(OCc1cscn1)N1CCC(CCOc2ccc3ncccc3c2)CC1` (as salt: HCl) [No. 19, Thiazol-4-ylmethyl 4-[2-(quinolin-6-yloxy)ethyl]-piperidine-1-carboxylate] the melting point was 140 to 150 °C.

For `O=C(OCc1cscn1)N1CCC(CCOc2ccc3cnccc3c2)CC1` (as salt: HCl) [No. 20, Thiazol-4-ylmethyl 4-[2-(isoquinolin-6-yloxy)ethyl]-piperidine-1-carboxylate], the melting point was 150 to 160 °C.

`COc1ccc2cc(OCC3CCN(C(=O)OCc4cscn4)C3)ccc2c1` (racemic) [No. 11, Thiazol-4-ylmethyl (+/−)-3-(6-methoxynaphth-2-yloxymethyl)pyrrolidine-1-carboxylate] showed a melting point of 128 to 130 °C.

For `O=C(OCc1cscn1)N1CCC(COc2ccc(Cl)c(Cl)c2)C1` (racemic) [No. 13, Thiazol-4-ylmethyl (+/−)-3-(3,4-dichlorophenoxymethyl)pyrrolidine-1-carboxylate], the melting point was 78 to 80 °C.

In the case of `O=C(OCc1cscn1)N1CCC(COc2ccc(Cl)c3ccccc23)C1` (racemic) [No. 16, Thiazol-4-ylmethyl (+/−)-3-(4-chloronaphth-1-yloxymethyl)pyrrolidine-1-carboxylate], the melting point is reported as 84 to 86 °C.

`O=C(OCc1cscn1)N1CCC(COc2ccc3ccccc3c2)C1` (racemic) [No. 17, Thiazol-4-ylmethyl 3-(naphth-2-yloxymethyl)pyrrolidine-1-carboxylate] gave a melting point of 90 to 92 °C.

`O=C(OCc1cscn1)N1CCC(COc2ccc(-c3ccc(F)cc3)cc2)C1` (racemic) [No. 22, Thiazol-4-ylmethyl 3-(4′-fluorobiphenyl-4-yloxymethyl)-pyrrolidine-1-carboxylate] showed a melting point of 115 to 117 °C.

`O=C(OCc1cscn1)N1CCC(COc2ccc3c(Cl)cccc3c2)C1` (racemic) [No. 23, Thiazol-4-ylmethyl (+/−)-3-(5-chloronaphth-2-yloxymethyl)pyrrolidine-1-carboxylate] showed a melting point of 89 to 91 °C.

With `O=C(OCc1cscn1)N1CCC(COc2cccc(OC(F)(F)F)c2)C1` (racemic) [No. 24, Thiazol-4-ylmethyl (+/−)-3-(3-{trifluoromethoxy}-phenoxymethyl)pyrrolidine-1-carboxylate] the melting point was 54 to 56 °C.

With `CC(C)(c1ccccc1)c1ccc(OCC2CCN(C(=O)OCc3cscn3)C2)cc1` (racemic) [No. 25, Thiazol-4-ylmethyl (+/−)-3-[4-(1-methyl-1-phenyl-ethyl)phenoxymethyl]pyrrolidine-1-carboxylate] the melting point was 76 to 78 °C.

`O=C(OCc1cscn1)N1CCC(COc2ccc3cnccc3c2)C1` (racemic) [No. 27, Thiazol-4-ylmethyl (+/−)-3-(isoquinolin-6-yloxymethyl)pyrrolidine-1-carboxylate] gave a melting point of 122 to 124 °C.

Compound `O=C(OCc1cscn1)N1CCC(COc2ccc3cccnc3c2)C1` (racemic) [No. 28, Thiazol-4-ylmethyl (+/−)-3-(quinolin-7-yloxymethyl)-pyrrolidine-1-carboxylate] has a melting point of 94 to 96 °C.

In the case of `O=C(OCc1cscn1)N1CCC(COc2ccc3ccncc3c2)C1` (racemic) [No. 29, Thiazol-4-ylmethyl (+/−)-3-(isoquinolin-7-yloxymethyl)pyrrolidine-1-carboxylate], the melting point is reported as 121 to 123 °C.

`O=C(OCc1cscn1)N1CCC(COc2ccc(Cl)c(C(F)(F)F)c2)C1` (racemic) [No. 30, Thiazol-4-ylmethyl (+/−)-3-(4-chloro-3-{trifluoromethyl}phenoxymethyl)pyrrolidine-1-carboxylate] showed a melting point of 60 to 62 °C.

`O=C(OCc1cscn1)N1CCC(COc2ccc3c(F)cccc3c2)C1` (racemic) [No. 31, Thiazol-4-ylmethyl (+/−)-3-(5-fluoronaphth-2-yloxymethyl)pyrrolidine-1-carboxylate] gave a melting point of 76 to 78 °C.

`O=C(OCc1nccs1)N1CCC(COc2ccc(-c3ccc(F)cc3)cc2)C1` (racemic) [No. 197, Thiazol-2-ylmethyl (+/−)-3-(4′-fluorobiphenyl-4-yloxymethyl)pyrrolidine-1-carboxylate] gave a melting point of 81 to 83 °C.

With `COc1ccc2cc(OCC3CCN(C(=O)OCc4cc(C(N)=O)no4)C3)ccc2c1` (racemic) [No. 201, 3-Carbamoylisoxazol-5-ylmethyl (+/−)-3-(6-methoxynaphth-2-yloxymethyl)pyrrolidine-1-carboxylate] the melting point was 193 to 195 °C.

`O=C(OCc1nccs1)N1CC[C@@H](COc2ccc3ccccc3c2)C1` (single isomer, unassigned) [No. 194] showed a melting point of 100 to 112 °C.

In the case of `O=C(OCc1nccs1)N1CC[C@H](COc2ccc3ccccc3c2)C1` (single isomer, unassigned) [No. 195], the melting point is reported as 112 to 114 °C.

Work on `O=C(OCc1cscn1)N1CCC(CCOc2ccc(Cl)cc2)CC1` [No. 5, Thiazol-4-ylmethyl 4-[2-(4-chlorophenoxy)ethyl]-piperidine-1-carboxylate] yielded a melting point of 53 to 55 °C.

Work on `O=C(OCc1cncs1)N1CCC(CCOc2ccc(F)cc2)CC1` [No. 6, Thiazol-5-ylmethyl 4-[2-(4-fluorophenoxy)ethyl]-piperidine-1-carboxylate] yielded a melting point of 96 to 98 °C.

`O=C(OCc1cncs1)N1CCC(CCOc2ccc(Cl)cc2)CC1` [No. 7, Thiazol-5-ylmethyl 4-[2-(4-chlorophenoxy)ethyl]-piperidine-1-carboxylate] gave a melting point of 93 to 97 °C.

`O=C(OCc1cncs1)N1CCC(CCOc2ccc(C(F)(F)F)cc2)CC1` [No. 8, Thiazol-5-ylmethyl 4-[2-(4-{trifluoromethyl}phenoxy)-ethyl]piperidine-1-carboxylate] showed a melting point of 47 to 49 °C.

Work on `COc1ccc2ccc(OCCC3CCN(C(=O)OCc4cscn4)CC3)cc2c1` [No. 9, Thiazol-4-ylmethyl 4-[2-(7-methoxynaphth-2-yloxy)ethyl]-piperidine-1-carboxylate] yielded a melting point of 95 to 97 °C.

Compound `N#Cc1ccc(OCCC2CCN(C(=O)OCc3cscn3)CC2)cc1` [No. 10, Thiazol-4-ylmethyl 4-[2-(4-cyanophenoxy)ethyl]-piperidine-1-carboxylate] has a melting point of 108 to 110 °C.

Work on `COc1ccc2cc(OCCC3CCN(C(=O)OCc4cscn4)CC3)ccc2c1` [No. 14, Thiazol-4-ylmethyl 4-[2-(6-methoxynaphth-2-yloxy)-ethyl]piperidine-1-carboxylate] yielded a melting point of 100 to 102 °C.

For `O=C(OCc1cscn1)N1CCC(CCOc2ccc3ccccc3c2)CC1` [No. 15, Thiazol-4-ylmethyl 4-[2-(naphth-2-yloxy)ethyl]-piperidine-1-carboxylate], the melting point was 88 to 90 °C.

Work on `O=C(OCc1cscn1)N1CCC(CCOc2ccc(-c3ccc(F)cc3)cc2)CC1` [No. 18, Thiazol-4-ylmethyl 4-[2-(4′-fluorobiphenyl-4-yloxy)-ethyl]piperidine-1-carboxylate] yielded a melting point of 62 to 64 °C.

Work on `O=C(OCc1nccs1)N1CCC(CCOc2ccc(C3CCCC3)cc2)CC1` [No. 38, Thiazol-2-ylmethyl 4-[2-(4-cyclopentylphenoxy)-ethyl]piperidine-1-carboxylate] yielded an IC50 [1] of 14 nM.

With `O=C(OCc1nccs1)N1CCC(CCOc2ccccc2-c2nc3ccccc3o2)CC1` [No. 39, Thiazol-2-ylmethyl 4-[2-(2-{benzoxazol-2-yl}-phenoxy)ethyl]piperidine-1-carboxylate] the IC50 [1] was 13 nM.

Compound `O=C(OCc1nccs1)N1CCC(CCOc2ccc(Cc3ccccc3)cc2)CC1` [No. 49, Thiazol-2-ylmethyl 4-[2-(4-benzylphenoxy)ethyl]-piperidine-1-carboxylate] has an IC50 [1] of 19 nM.

Compound `CCCCOc1cccc(OCCC2CCN(C(=O)OCc3nccs3)CC2)c1` [No. 60, Thiazol-2-ylmethyl 4-[2-(3-butoxyphenoxy)ethyl]-piperidine-1-carboxylate] has an IC50 [1] of 95 nM.

`NC(=O)c1cc(COC(=O)N2CCC(CCOc3ccc(F)cc3)CC2)on1` [No. 198, 3-Carbamoylisoxazol-5-ylmethyl 4-[2-(4-fluorophenoxy)ethyl]piperidine-1-carboxylate] gave a melting point of 106 to 108 °C.
